The assay has as its system asymmetric di-methyl PABP1 in RKO cells. Kind of assay: In Cell Western (ICW) for asymmetric di-methyl PABP1 and DNA content in RKO cells. The format is cell-based. A digest of the protocol: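 RKO cells treated with compound for 48 h at 37 °C, then fixed, methanol-permeabilized and stained for asymmetric di-methyl PABP1 (800 nm) with DRAQ5 DNA stain (700 nm). Signal ratio normalized to DMSO and 20 μM reference-compound controls. IC50 from nine 3-fold dilutions in triplicate.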

Where [1] appears, read: Homo sapiens, RKO, In Cell Western.

We go through 10 molecules from patent publication US20170280720A1, “ARGININE […] INHIBITORS AND USES THEREOF” (EPIZYME, INC., priority 2014, published 2017).

A word on the IC50: it is the concentration at which inhibition is half-maximal. Low readings indicate greater potency in that assay, high ones weaker potency in that assay. `CNCCN(C)Cc1cccc(-c2nc(C(=O)NCc3cn4ccsc4n3)c3cnn(C4CC4)c3n2)c1` [Compound 180] displayed an IC50 under setting [1] of 0.897 µM. Under “48 hours”, `Cc1cc(C)c(CNC(=O)c2cc(-c3cccc(CN(C)CCN)c3)nc3c2cnn3C(C)C)c(=O)[nH]1` [Compound 360] yielded a concentration for half-maximal inhibition (IC50) of 0.934 µM.

`CNCCN(C)Cc1ccc(-c2cc(C(=O)NCc3c(C)cc(C)[nH]c3=O)c(C)c3n[nH]cc23)cc1` [Compound 362]: under “Homo sapiens, RKO, 48 h”, the IC50 was at least 20 µM. Under setting [1], `CNCCN(C)Cc1cccc(-c2cc(C(=O)NCc3ccncc3)c3cnn(C(C)C)c3n2)c1` [Compound 182] yielded a half-maximal inhibitory concentration (IC50) of 3.55 µM. For `CC(C)n1ncc2c(C(=O)N(C)CC3CCOCC3)cc(-c3cccc(CN(C)CCN)c3)nc21` [Compound 256], the half-maximal inhibitory concentration (IC50) under setting [1] is 9.56 µM. Molecule `CNCCN(C)Cc1cccc(-c2cc(C(=O)NCc3c(C)cc(C)[nH]c3=O)c(C)c3[nH]ncc23)c1` [Compound 372] registered a half-maximal inhibitory concentration (IC50) (48 hours) of at least 20 µM. Still for that read-out and setting: the same measure for `CNCCN(C)Cc1cccc(-c2cc(C(=O)NCc3c(C)cc(C)[nH]c3=O)c3cnn(C(C)C)c3n2)c1` [Compound 368]: 1.01 µM.

Take `CN(CCN)Cc1cccc(-c2ccc(C(=O)NCC3CCOCC3)c(N(C)CC3CC3)c2)c1` [Compound 263]: 20 µM corresponded to half-maximal inhibition under setting [1] (IC50). In other words, the double-digit micromolar range.

In the case of `CNCCN(C)Cc1cccc(-c2cc(C(=O)N(C)Cc3ccccn3)c3cnn(C(C)C)c3n2)c1` [Compound 300], the IC50 under setting [1] worked out at 6.38 µM. Under “48 hours”, `CNCCN(C)Cc1cccc(-c2cc(C(=O)NCc3c(C)cc(C)[nH]c3=O)c3cnn(C(C)C)c3c2)c1` [Compound 367] registered a concentration for half-maximal inhibition (IC50) of 6.48 µM.
